Assay results as given in article PMC7822063, “Analogues of 2′-hydroxychalcone with modified C4-substituents as the inhibitors against human acetylcholinesterase” (Journal of Enzyme Inhibition and Medicinal Chemistry, 2020).

Experiments:
human recombinant AChE = human recombinant AChE (Homo sapiens, UniProt P22303); assay: biochemical; details: for inhibition at 10 µM / IC50: mean of triplicate; for Selectivity index: IC50 (BuChE)/IC50 (AChE)
Experimental: To determine the inhibitory activity of the target compounds towards cholinesterases, the AChE and BuChE inhibition assays were performed in 96 well plates by the method of Ellman with slight modifications. […] Then, the mixture was incubated for 20 min at 37 °C. Subsequently, the reaction was initiated by addition of 50 μL (0.120 mM) of the substrate, acetylthiocholine (ATC) iodide or butyrylthiocholine (BTC) iodide (depending on the enzyme). […] Each assay was performed in triplicate. The percentage of inhibition was calculated using the following expression: (E–S)/E ×100 where E is the activity of the enzyme without test compound and S is the activity of the enzyme with the test compound. IC50 values were obtained from concentration-inhibition experiments by nonlinear regression analysis using PRISM® v5.0 (GraphPad Inc., San Diego, CA).
The designed 2′-hydroxychalcone derivatives were evaluated for their in vitro inhibitory activities against human recombinant AChE according to Ellman’s colorimetric assay method.

equine BuChE = equine BuChE (Equus caballus, UniProt P81908); assay: biochemical; format: biochemical; details: mean of triplicate
Sequence of equine BuChE (P81908 whole entry): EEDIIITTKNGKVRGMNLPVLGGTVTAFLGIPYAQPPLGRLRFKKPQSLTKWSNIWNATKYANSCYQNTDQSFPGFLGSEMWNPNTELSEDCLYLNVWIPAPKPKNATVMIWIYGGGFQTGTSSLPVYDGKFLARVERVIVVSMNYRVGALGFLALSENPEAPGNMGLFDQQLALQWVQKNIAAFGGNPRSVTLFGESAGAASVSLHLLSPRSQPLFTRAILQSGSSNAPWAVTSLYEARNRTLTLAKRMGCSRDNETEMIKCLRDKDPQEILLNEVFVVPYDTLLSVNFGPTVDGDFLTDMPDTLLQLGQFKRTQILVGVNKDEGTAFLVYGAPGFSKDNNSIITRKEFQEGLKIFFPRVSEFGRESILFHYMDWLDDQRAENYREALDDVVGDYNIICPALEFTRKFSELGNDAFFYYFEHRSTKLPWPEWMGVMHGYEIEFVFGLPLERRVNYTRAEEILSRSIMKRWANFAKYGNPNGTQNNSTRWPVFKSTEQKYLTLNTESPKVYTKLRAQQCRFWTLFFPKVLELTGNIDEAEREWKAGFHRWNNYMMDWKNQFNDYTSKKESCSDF

Sequence of human recombinant AChE (P22303 32-614): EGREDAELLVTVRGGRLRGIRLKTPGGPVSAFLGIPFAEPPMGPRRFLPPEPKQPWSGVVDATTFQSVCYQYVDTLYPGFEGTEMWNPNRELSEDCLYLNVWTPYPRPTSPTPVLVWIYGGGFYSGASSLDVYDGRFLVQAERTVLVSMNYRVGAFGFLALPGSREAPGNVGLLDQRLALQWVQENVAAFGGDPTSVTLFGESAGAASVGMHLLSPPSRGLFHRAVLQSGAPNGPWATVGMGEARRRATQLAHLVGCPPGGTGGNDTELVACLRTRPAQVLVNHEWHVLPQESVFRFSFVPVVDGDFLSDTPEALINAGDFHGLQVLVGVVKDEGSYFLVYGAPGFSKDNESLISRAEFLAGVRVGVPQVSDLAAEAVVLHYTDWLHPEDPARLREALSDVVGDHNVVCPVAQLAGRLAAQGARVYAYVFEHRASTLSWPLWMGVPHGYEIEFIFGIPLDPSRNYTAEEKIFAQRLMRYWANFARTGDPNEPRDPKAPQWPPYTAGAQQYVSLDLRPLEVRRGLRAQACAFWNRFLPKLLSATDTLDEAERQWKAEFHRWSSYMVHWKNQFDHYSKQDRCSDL

SMILES	inhibition at 10 µM (human recombinant AChE)	IC50 (equine BuChE)	Selectivity index (human recombinant AChE)	IC50 (human recombinant AChE)	Equine BuChE IC50 (equine BuChE)
CCN(CC)C(=O)Cc1ccc(/C=C/C(=O)c2ccc(OC)cc2O)cc1 [Compound 4a, (E)-N,N-diethyl-2-(4-(3-(2-hydroxy-4-methoxyphenyl)-3-oxoprop-1-en-1yl)phenyl)acetamide]	67.2%	–	–	–	–
CCN(CC)C(=O)Cc1ccc(/C=C/C(=O)c2cc(OC)c(OC)cc2O)cc1 [Compound 4b, (E)-N,N-diethyl-2-(4-(3-(2-hydroxy-4,5-dimethoxyphenyl)-3-oxoprop-1-en-1-yl)phenyl)acetamide]	58.5%	–	–	–	–
CCN(CC)C(=O)Cc1ccc(/C=C/C(=O)c2c(O)cc(OC)cc2OC)cc1 [Compound 4c, (E)-N,N-diethyl-2-(4-(3-(2-hydroxy-4,6-dimethoxyphenyl)-3-oxoprop-1-en-1-yl)phenyl)acetamide]	87.5%	> 100 µM	>30	3.3 ± 1.3 µM	–
COc1ccc(C(=O)/C=C/c2ccc(CC(=O)N3CCCC3)cc2)c(O)c1 [Compound 4d, (E)-1-(2-hydroxy-4-methoxyphenyl)-3-(4-(2-oxo-2-(pyrrolidin-1-yl)ethyl)phenyl)prop-2-en-1-one]	30.8%	–	–	–	–
COc1cc(O)c(C(=O)/C=C/c2ccc(CC(=O)N3CCCC3)cc2)cc1OC [Compound 4e, (E)-1-(2-hydroxy-4,5-dimethoxyphenyl)-3-(4-(2-oxo-2-(pyrrolidin-1-yl)ethyl)phenyl)prop-2-en-1-one]	58.9%	–	–	–	–
O=C(O)Cc1ccc(/C=C/C(=O)c2ccccc2O)cc1 [Compound 4f, (E)-2-(4-(3-(2-hydroxyphenyl)-3-oxoprop-1-en-1-yl)phenyl)acetic acid]	10.7%	–	–	–	–
COc1ccc(O)c(C(=O)/C=C/c2ccc(CC(=O)O)cc2)c1 [Compound 4g, (E)-2-(4-(3-(2-hydroxy-5-methoxyphenyl)-3-oxoprop-1-en-1-yl)phenyl)acetic acid]	27%	–	–	–	–
COc1cc(O)c(C(=O)/C=C/c2ccc(CC(=O)O)cc2)c(OC)c1 [Compound 4h, (E)-2-(4-(3-(2-hydroxy-4,6-dimethoxyphenyl)-3-oxoprop-1-en-1-yl)phenyl)acetic acid]	15.6%	–	–	–	–
COc1ccc(C(=O)/C=C/c2ccc(OCCN3CCCCC3)cc2)c(O)c1 [Compound 8a, (E)-1-(2-hydroxy-4-methoxyphenyl)-3-(4-(2-(piperidin-1-yl)ethoxy)phenyl)prop-2-en-1-one]	79.9%	> 100 µM	>24	4.2 ± 1.3 µM	inactive
COc1ccc(C(=O)/C=C/c2ccc(OCCN3CCCC3)cc2)c(O)c1 [Compound 8b, (E)-1-(2-hydroxy-4-methoxyphenyl)-3-(4-(2-(pyrrolidin-1-yl)ethoxy)phenyl)prop-2-en-1-one]	83%	65.6 ± 14.8 µM	5.1	12.8 ± 4.8 µM	–
COc1cc(O)c(C(=O)/C=C/c2ccc(OCCN3CCCCC3)cc2)cc1OC [Compound 8c, (E)-1-(2-hydroxy-4,5-dimethoxyphenyl)-3-(4-(2-(piperidin-1-yl)ethoxy)phenyl)prop-2-en-1-one]	52.5%	–	–	–	–
COc1cc(O)c(C(=O)/C=C/c2ccc(OCCN3CCCC3)cc2)cc1OC [Compound 8d, (E)-1-(2-hydroxy-4,5-dimethoxyphenyl)-3-(4-(2-(pyrrolidin-1-yl)ethoxy)phenyl)prop-2-en-1-one]	80.6%	89.9 ± 12 µM	5.7	15.9 ± 1.8 µM	–
COc1cc(O)c(C(=O)/C=C/c2ccc(OCCN3CCCCC3)cc2)c(OC)c1 [Compound 8e, (E)-1-(2-hydroxy-4,6-dimethoxyphenyl)-3-(4-(2-(piperidin-1-yl)ethoxy)phenyl)prop-2-en-1-one]	83.6%	18.3 ± 8 µM	4.0	4.6 ± 0.9 µM	–
COc1cc(O)c(C(=O)/C=C/c2ccc(OCCN3CCCC3)cc2)c(OC)c1 [Compound 8f, (E)-1-(2-hydroxy-4,6-dimethoxyphenyl)-3-(4-(2-(pyrrolidin-1-yl)ethoxy)phenyl)prop-2-en-1-one]	81.4%	31.3 ± 8.2 µM	1.7	18.5 ± 3.8 µM	–
